The record followed here is patent US20180099931A1 (AbbVie S.à.r.l., priority 2016, published 2018).

This assay deals with T1, F508delCFTR (Homo sapiens, UniProt P13569, DEL508-508).
T1 construct: expressed in transfected cells; host or cells: CFBE41o- human lung-derived epithelial cells (CFBE4lo-F508delCFTR-HRP), doxycycline-inducible
Description: Cell Surface Expression-Horse Radish Peroxidase (CSE-HRP) Assay.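 On Maximum % activity (with co-corrector): co-corrector and positive control are both the same reference corrector at 2 µM.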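 On Maximum % activity (without co-corrector): percent of the 2 µM on-plate positive control corrector response above DMSO.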 The following applies: for Emax / Maximum % activity (with co-corrector): maximum at any tested concentration, normalized to on-plate positive control; for Emax: read-out: Maximum % activity (without co-corrector). Format: cell-based. The method, then:
Cell Surface Expression-Horse Radish Peroxidase (CSE-HRP) Assay;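 on Maximum % activity (with co-corrector): co-corrector and positive control are both the same reference corrector at 2 µM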;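 on Maximum % activity (without co-corrector): percent of the 2 µM on-plate positive control corrector response above DMSO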
The development was achieved by expressing the F508delCFTR mutation along with a horseradish peroxidase (HRP) in the fourth exofacial loop, and then measuring the HRP activity using luminescence readout from these cells, CFBE4lo-F508delCFTR-HRP, that were incubated overnight with the test corrector compounds, either without or with the co-corrector. […] The test compounds were then added either without or with a co-corrector at the required concentrations and further incubated for 18-24 hours at 33° C. The highest concentration tested was 20 μM with an 8-point concentration response curve using a 3-fold dilution in both the test compound without or with the co-corrector. Three replicate plates were run to determine one EC50. All plates contained negative controls (dimethyl sulfoxide, DMSO) and positive control (2 μM of 3-[(2R,4R)-4-({[1-(2,2-difluoro-1,3-benzodioxol-5-yl)cyclopropyl]carbonyl}amino)-7-methoxy-3,4-dihydro-2H-chromen-2-yl]benzoic acid) as well as on-plate concentration response of the positive control. […] The raw counts from the experiment were analyzed using Accelrys® Assay Explorer v3.3.
1−[3*SDPositive Control+3*SDNegative Control/Absolute(MeanPositive Control−MeanNegative Control)]
wherein “SD” is standard deviation.
The % activity measured at each of the 8 test concentrations of the test compound added either without or with a co-corrector (2 μM of 3-[(2R,4R)-4-({[1-(2,2-difluoro-1,3-benzodioxol-5-yl)cyclopropyl]carbonyl}amino)-7-methoxy-3,4-dihydro-2H-chromen-2-yl]benzoic acid) was normalized to the on-plate positive control using the following formulae:
% activity(Test compound without co-corrector)=[(test compound without co-corrector response−DMSO response)/(positive control response−DMSO response)]*100
% activity(Test compound with co-corrector)=[(test compound with co-corrector response−DMSO response)/(positive control response−DMSO response)]*100
The maximum % activity achieved for the test compound either without or with a co-corrector at any tested concentration is presented in Table 4 along with the respective EC50's calculated using the following general sigmoidal curve with variable Hill slope equation (described as Model 42 in the Accelrys® Assay Explorer v3.3 software):
General sigmoidal curve with concentration, response, top, bottom, EC50 and Hill slope. This model describes a sigmoidal curve with an adjustable baseline, a. The equation can be used to fit curves where response is either increasing or decreasing with respect to the independent variable, “x”.
“x” is a concentration of drug under test. “y” is the response. “a” is the maximum response, and “d” is the minimum response “c” is the inflection point (EC50) for the curve. That is, “y” is halfway between the lower and upper asymptotes when x=c. “b” is the slope-factor or Hill coefficient. The sign of b is positive when the response increases with increasing dose and is negative when the response decreases with increasing dose (inhibition).

Setting [1] is: test compound without co-corrector.
Setting [2] is: test compound without co-corrector, read-out: EC50 (without co-corrector).
[3] abbreviates: with co-corrector (2 μM of 3-[(2R,4R)-4-({[1-(2,2-difluoro-1,3-benzodioxol-5-yl)cyclopropyl]carbonyl}amino)-7-methoxy-3,4-dihydro-2H-chromen-2-yl]benzoic acid).
Where [4] appears, read: with co-corrector (2 μM of 3-[(2R,4R)-4-({[1-(2,2-difluoro-1,3-benzodioxol-5-yl)cyclopropyl]carbonyl}amino)-7-methoxy-3,4-dihydro-2H-chromen-2-yl]benzoic acid), read-out: EC50 (with co-corrector).

A word on the EC50: it is the concentration giving half of the maximal effect.

Where two headings read alike, the source gives them in different places.

T1 sequence (P13569 with tags, fused parts or gaps DEL508-508): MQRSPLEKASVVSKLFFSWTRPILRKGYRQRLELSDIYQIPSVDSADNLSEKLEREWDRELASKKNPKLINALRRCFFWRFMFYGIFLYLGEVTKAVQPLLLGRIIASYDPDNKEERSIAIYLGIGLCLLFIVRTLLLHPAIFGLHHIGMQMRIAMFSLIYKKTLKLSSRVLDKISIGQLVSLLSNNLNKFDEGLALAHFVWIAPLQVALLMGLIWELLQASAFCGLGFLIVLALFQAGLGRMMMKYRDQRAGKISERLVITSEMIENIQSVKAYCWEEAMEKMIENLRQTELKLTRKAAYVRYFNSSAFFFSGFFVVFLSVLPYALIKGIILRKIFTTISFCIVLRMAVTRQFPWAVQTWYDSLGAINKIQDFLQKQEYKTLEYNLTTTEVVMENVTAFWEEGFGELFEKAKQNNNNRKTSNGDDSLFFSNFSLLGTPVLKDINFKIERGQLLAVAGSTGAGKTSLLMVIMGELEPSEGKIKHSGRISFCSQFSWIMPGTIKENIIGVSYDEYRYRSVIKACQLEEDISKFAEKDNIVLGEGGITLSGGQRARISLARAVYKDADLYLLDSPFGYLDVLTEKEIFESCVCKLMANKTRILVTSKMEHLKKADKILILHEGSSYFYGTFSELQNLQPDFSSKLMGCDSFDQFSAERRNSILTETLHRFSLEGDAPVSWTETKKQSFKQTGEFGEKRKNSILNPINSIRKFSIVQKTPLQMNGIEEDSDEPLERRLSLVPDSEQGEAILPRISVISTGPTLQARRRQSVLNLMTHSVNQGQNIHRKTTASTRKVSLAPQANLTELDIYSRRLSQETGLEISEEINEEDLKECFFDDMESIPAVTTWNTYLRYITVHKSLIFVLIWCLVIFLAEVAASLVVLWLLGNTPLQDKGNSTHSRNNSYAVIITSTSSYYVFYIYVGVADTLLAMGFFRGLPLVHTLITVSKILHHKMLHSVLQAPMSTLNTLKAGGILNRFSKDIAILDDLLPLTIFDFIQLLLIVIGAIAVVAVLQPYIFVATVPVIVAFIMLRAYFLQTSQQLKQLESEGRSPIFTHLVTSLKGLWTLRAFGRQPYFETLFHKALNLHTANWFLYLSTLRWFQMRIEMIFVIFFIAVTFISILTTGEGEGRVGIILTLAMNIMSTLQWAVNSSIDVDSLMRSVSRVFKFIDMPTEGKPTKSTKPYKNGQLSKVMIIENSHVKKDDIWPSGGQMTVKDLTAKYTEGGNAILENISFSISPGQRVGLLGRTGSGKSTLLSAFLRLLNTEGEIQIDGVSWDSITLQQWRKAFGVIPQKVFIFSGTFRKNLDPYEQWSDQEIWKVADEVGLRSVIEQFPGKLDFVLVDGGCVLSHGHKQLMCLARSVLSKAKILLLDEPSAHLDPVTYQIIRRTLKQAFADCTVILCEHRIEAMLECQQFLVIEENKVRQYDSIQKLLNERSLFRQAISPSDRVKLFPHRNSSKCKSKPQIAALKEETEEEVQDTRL

Consider `COc1ccnc(CN[C@@H]2[C@@H](C(C)(C)C)[C@H](C(=O)O)N(C(=O)C3CCCCC3)[C@@H]2c2ccccc2)n1` (racemic) [III-22], for which the Emax under setting [1] was below 100%. Moreover, the EC50 reads like this: under setting [2], above 10 µM; under setting [4], above 10 µM. Also, the “Maximum % activity (with co-corrector)” value under setting [3] is “+ (<150)”.
As to `CC(C)(C)[C@@H]1[C@@H](Nc2cc(C(F)(F)F)cc(=O)[nH]2)[C@@H](c2ccccc2)N(C(=O)C2CCCCC2)[C@H]1C(=O)O` (racemic) [III-23], the Emax under setting [1] is below 100%. Moreover, the EC50 runs as follows: under setting [2], above 10 µM; under setting [4], above 10 µM. Further, the “Maximum % activity (with co-corrector)” value under setting [3] was “+ (<150)”.
For the compound `COCCn1ccnc1CN[C@@H]1[C@@H](C(C)(C)C)[C@H](C(=O)O)N(C(=O)C2CCCCC2)[C@@H]1c1ccccc1` (racemic) [III-24], the Emax under setting [1] was below 100%. The EC50 under setting [2] was above 10 µM and the EC50 under setting [4] is above 10 µM. For the same compound, the “Maximum % activity (with co-corrector)” value under setting [3] is recorded as “+ (<150)”.
As to `COc1ccc(CN[C@@H]2[C@@H](C(C)(C)C)[C@H](C(=O)O)N(C(=O)C3CCCCC3)[C@@H]2c2ccccc2)cn1` (racemic) [III-25], the Emax under setting [1] was below 100%. The EC50 is above 10 µM under setting [2] and 1 to 10 µM under setting [4]. For the same compound, the “Maximum % activity (with co-corrector)” value under setting [3] was “++ (≥150 and <350)”.
Consider `COc1ccc(Cl)cc1CN[C@@H]1[C@@H](C(C)(C)C)[C@H](C(=O)O)N(C(=O)C2CCCCC2)[C@@H]1c1ccccc1` (racemic) [III-27], for which, under setting [1], the Emax was above 200%. The EC50 under setting [2] was in the range of 1 to 10 µM and the EC50 under setting [4] was in the range of 1 to 10 µM. Also, the “Maximum % activity (with co-corrector)” value under setting [3] was “+++ (≥350)”.
With `CC(C)(C)[C@@H]1[C@@H](NCc2cccnc2N2CCOCC2)[C@@H](c2ccccc2)N(C(=O)C2CCCCC2)[C@H]1C(=O)O` (racemic) [III-28], the Emax under setting [1] was below 100%. The EC50 runs as follows: under setting [2], 1 to 10 µM; under setting [4], 1 to 10 µM. For the same compound, the “Maximum % activity (with co-corrector)” value under setting [3] is “++ (≥150 and <350)”.
As for `COc1ncc(CN[C@@H]2[C@@H](C(C)(C)C)[C@H](C(=O)O)N(C(=O)C3CCCCC3)[C@@H]2c2ccccc2)c(OC)n1` (racemic) [III-29], the Emax under setting [1] is below 100%. Besides, the EC50 under setting [2] lay within 1 to 10 µM and the EC50 under setting [4] lay within 1 to 10 µM. Besides, the “Maximum % activity (with co-corrector)” value under setting [3] is “++ (≥150 and <350)”.
For `COc1cc(Cl)ccc1CN[C@@H]1[C@@H](C(C)(C)C)[C@H](C(=O)O)N(C(=O)C2CCCCC2)[C@@H]1c1ccccc1` (racemic) [III-30], the Emax under setting [1] is above 200%. In addition, the EC50 under setting [2] lay in the range of 1 to 10 µM and the EC50 under setting [4] fell in the range of 1 to 10 µM. Further, the “Maximum % activity (with co-corrector)” value under setting [3] is “+++ (≥350)”.
Consider `CC(C)(C)[C@@H]1[C@@H](Nc2cc(C(F)(F)F)cc[n+]2[O-])[C@@H](c2ccccc2)N(C(=O)C2CCCCC2)[C@H]1C(=O)O` (racemic) [III-31], for which the Emax under setting [1] was below 100%. Further, the EC50 is above 10 µM under setting [2] and 1 to 10 µM under setting [4]. The “Maximum % activity (with co-corrector)” value under setting [3] was “++ (≥150 and <350)”.
Take `Cc1cc(C(F)(F)F)cc(N[C@@H]2[C@@H](C(C)(C)C)[C@H](C(=O)O)N(C(=O)C3CCCCC3)[C@@H]2c2ccccc2)[n+]1[O-]` (racemic) [III-32]: under setting [1], the Emax was below 100%. The EC50 under setting [2] is 1 to 10 µM and the EC50 under setting [4] lay in the range of 1 to 10 µM. Further, under setting [3], the “Maximum % activity (with co-corrector)” value was “++ (≥150 and <350)”.
On to `O=C(O)[C@H]1[C@H](C2CC2)[C@@H](Nc2cc(C(F)(F)F)ccn2)[C@@H](c2ccccc2)N1C(=O)C1CCCCC1` (racemic) [III-33], for which the Emax under setting [1] is below 100%. For the same compound, the EC50 under setting [2] was 1 to 10 µM and the EC50 under setting [4] was in the range of 1 to 10 µM. Besides, the “Maximum % activity (with co-corrector)” value under setting [3] is “++ (≥150 and <350)”.
Take `CC(C)N(C(=O)N1[C@H](c2ccccc2)[C@H](NCc2ccccc2OC(F)F)[C@@H](C)[C@@H]1C(=O)O)C(C)C` (racemic) [III-34]: the Emax under setting [1] was below 100%. Further, the EC50 lay in the range of 1 to 10 µM under setting [2] and 1 to 10 µM under setting [4]. The “Maximum % activity (with co-corrector)” value under setting [3] is “++ (≥150 and <350)”.
